The values below come from patent US20210322509A1, “Methods for Reducing Perinatal Morbidity and / or Mortality” (CHU SAINTE-JUSTINE, priority 2016, published 2021).

In data set [1] the test system is Il1a, Il1b, Il6 and Tnfa mRNA in fetal head. Put plainly: LPS-induced cytokine gene expression in fetal brain (qPCR). In kind it is in vivo, C57Bl/6 mice. How it is done: FIGS. 10A to 10D show the induction of pro-inflammatory cytokines in fetal brain after maternal LPS administration is suppressed by compound 2 (cmpd2) in mice. C57Bl/6 mice were mated to males of the same genotype, administered LPS with or without compound 2 and fetal head were recovered. Relative expression of Il1a (FIG. 10A), IL6 (FIG. 10B), TNF (FIG. 10C) and IL1B (FIG. 10D) mRNAs were determined in each tissue by qPCR and normalized to Actb. Data are shown as mean±SEM relative gene expression in tissue pooled from two implantation sites with n=6 dams/group. The effect of LPS and compound 2 was analyzed by Kruskal-Wallis and Mann-Whitney U-test. #* indicates significant differences between groups, p<0.05.
Animal and treatments. To analyze effects of compound 2 on LPS-induced cytokine expression in the fetal brain after inflammatory stimulus mimicking infection in utero, pregnant female C57Bl/6 female mice (mated with C57Bl/6 males) were injected with 0.5 μg lipopolysaccharide (LPS; Salmonella typhimurium; Sigma-Aldrich®, St. Louis, Mo., USA) in 200 μl PBS i.p., or PBS control, at 1100 h on gd 16.5. Mice were immediately administered compound 2 (1 mg/kg in PBS) or vehicle control (PBS+0.1% BSA) within 5 mins of LPS injection on gd 16.5, then killed 4 h later. Brain tissues were recovered by severing the fetal head from 2 fetuses from each of […] per treatment group.
Expression of inflammatory markers. Messenger RNA (mRNA) was extracted by homogenizing tissues using ceramic beads (Mo Bio) in Trizol® (Ambion® RNA, Carlsbad Calif.). […] Primer pairs specific for published cDNA sequences were designed using Primer Express® software (Applied Biosystems®, Foster City, Calif.) to quantify Il1a, Il1b, Il6 and Tnfa mRNA. […] Data were normalized to β-actin mRNA expression and expressed as ΔΔCT using the formula mRNA level=[…]. […] Data were tested for normality using a Shapiro-Wilk test then analyzed by Kruskal-Wallis and Mann-Whitney U-test since data were not normally distributed. […]
(Quantitative PCR measures a nucleic acid by following its amplification.)

Data set [2] deals with pregnant C57Bl/6 mice given LPS. Description: Perinatal outcomes after maternal LPS (gestation length, perinatal survival, birth weight). Type of data set: in vivo. How it is done:
The timing of birth (FIG. 11A); the number of viable pups per litter at birth (FIG. 11B); the proportion of pups surviving to one week (FIG. 11C), and birth weight at 12-24 h (FIG. 11D) were recorded (all mean±SEM). The number of treated dams in each group is shown in parentheses (n=10 per group, with n=48-57 pups weighed per group at birth) and data were analysed by ANOVA and post-hoc Sidak t-test; *P<0.05.
Animal and treatments. […] Mice were monitored via video recording until the time of parturition. Gestation length and perinatal survival (number of live pups at birth and % pups surviving to one week) were recorded. Pups were weighed at 12-24 h after birth.

Setting [3] is: LPS gd 16.5 + compound 2 1 mg/kg i.p. at 12 h intervals, 4 doses.

Each structure is given as a SMILES string. Non-standard residues stand in square brackets, D forms with d. Residues, ends and D or L forms follow the SMILES beside them. ξ: configuration not given here. dThr(3ξ) = CC(O)[C@@H](N)C(=O)O

In the case of `CC(C)C[C@@H](NC(=O)[C@@H](CCC(=O)O)NC(=O)[C@H](NC(=O)[C@H](NC(=O)[C@@H](Cc1ccc(O)cc1)NC(=O)[C@H](N)CCCNC(=N)N)C(C)O)C(C)C)C(=O)N[C@H](C)C(=O)O` (stereo partly drawn) [compound 2] (H-[dR][dY][dThr(3ξ)][dV][dE][dL][dA]-OH), the “expression of Il1a, Il1b and Il6 in fetal head relative to PBS control” value in data set [1] (LPS + compound 2) is given as “no change”. For the same molecule, the “expression of Il1a, Il1b and Il6 in fetal head relative to PBS control” value in data set [1] (compound 2 alone (no LPS)) was “did not significantly alter”. In addition, in data set [1] (dams given LPS 0.5 μg i.p. gd 16.5 + compound 2 1 mg/kg, 4 h later), the “expression of Il1a, IL6, TNF and IL1B in fetal head, reduction relative to LPS alone” value was 40-60%. Moreover, in data set [2] (setting [3]), the “LPS-induced death in the first week of life” value is on record as “completely reversed”, the “LPS-induced perinatal loss (number of viable pups at birth)” value is “completely reversed” and the “LPS-induced prematurity (gestation length)” value is listed as “completely reversed”. Also, the perinatal outcomes in data set [2] (compound 2 alone, in the absence of LPS) is recorded as “did not alter perinatal outcomes”. Further, in data set [2] (compound 2 with or without LPS treatment), the “pup weight at 12-24 h after birth” value was “no significant effect”.
